Literature values as cited in patent US20100150991A1, “Combination Wound Therapy” (priority 2008, published 2010).

How the values were obtained:
acute and chronic wounds = conditions: topical CO2, acute and chronic wounds; Wollina et al 2004
[1] = CO2 insufflation compared with air insufflation; van der Linden and Persson 2003
[2] = system: neutrophil adhesion, platelets, and pro-inflammatory cutokines in the circulating blood; conditions: doses of less than 80 ppm; by reducing neutrophil adhesion, platelets and pro-inflammatory cytokines in circulating blood
[3] = topical application of gaseous nitric oxide

Structure (SMILES)	clinical evidence in wounds (acute and chronic wounds)	rates of infection [1]	anti-inflammatory effect [2]	half life of NO in contact with tissues [3]
O=C=O [CO2, carbon dioxide]	increased granulation tissue and reduction of discharge and malodor	lower rates of infection than air insufflation		
[N]=O [NO, nitric oxide]			anti-inflammatory effect	6 min
